Data taken from PubChem BioAssay (NCI).
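Exposure lasted 48 hours, with cells grown in 96-well plates and compounds tested at five concentrations. Abbreviation: GI50, concentration required for 50% inhibition of growth. The concentration for full growth arrest is given as TGI.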

Assays:
Assay in all cases: DTP human tumour cell line panel, 48 h
SK-MEL-2 melanoma = system: SK-MEL-2 melanoma
SK-OV-3 ovarian = system: SK-OV-3 ovarian
MOLT-4 leukemia = system: MOLT-4 leukemia
MDA-MB-231 breast = system: MDA-MB-231 breast
UO-31 renal = system: UO-31 renal
COLO 205 colon = system: COLO 205 colon
SK-MEL-28 melanoma = system: SK-MEL-28 melanoma
SNB-75 CNS = system: SNB-75 CNS
NCI-H460 lung = system: NCI-H460 lung
NCI-H23 lung = system: NCI-H23 lung
CAKI-1 renal = system: CAKI-1 renal
HCT-116 colon = system: HCT-116 colon
UACC-62 melanoma = system: UACC-62 melanoma
PC-3 prostate = system: PC-3 prostate
SW-620 colon = system: SW-620 colon
HCC-2998 colon = system: HCC-2998 colon
U251 CNS = system: U251 CNS
SK-MEL-5 melanoma = system: SK-MEL-5 melanoma
OVCAR-8 ovarian = system: OVCAR-8 ovarian
SR leukemia = system: SR leukemia
UACC-257 melanoma = system: UACC-257 melanoma
T-47D breast = system: T-47D breast
HL-60(TB) leukemia = system: HL-60(TB) leukemia
A549 NSCLC = system: A549 NSCLC
OVCAR-3 ovarian = system: OVCAR-3 ovarian
SF-539 CNS = system: SF-539 CNS
OVCAR-4 ovarian = system: OVCAR-4 ovarian
RPMI-8226 leukemia = system: RPMI-8226 leukemia
NCI-H522 lung = system: NCI-H522 lung
SNB-19 CNS = system: SNB-19 CNS
MCF7 breast = system: MCF7 breast
KM12 colon = system: KM12 colon
BT-549 breast = system: BT-549 breast
SF-268 CNS = system: SF-268 CNS
K-562 leukemia = system: K-562 leukemia
NCI-H226 lung = system: NCI-H226 lung
SN12C renal = system: SN12C renal
OVCAR-5 ovarian = system: OVCAR-5 ovarian
ACHN renal = system: ACHN renal
SF-295 CNS = system: SF-295 CNS
IGROV1 ovarian = system: IGROV1 ovarian
HOP-92 NSCLC = system: HOP-92 NSCLC
HT29 colon = system: HT29 colon
CCRF-CEM leukemia = system: CCRF-CEM leukemia
A498 renal = system: A498 renal
NCI/ADR-RES ovarian = system: NCI/ADR-RES ovarian
786-0 renal = system: 786-0 renal
RXF 393 renal = system: RXF 393 renal
TK-10 renal = system: TK-10 renal
HS 578T breast = system: HS 578T breast
HOP-62 NSCLC = system: HOP-62 NSCLC
HCT-15 colon = system: HCT-15 colon
EKVX NSCLC = system: EKVX NSCLC
DU-145 prostate = system: DU-145 prostate
MDA-MB-435 = system: MDA-MB-435
M14 melanoma = system: M14 melanoma
LOX IMVI melanoma = system: LOX IMVI melanoma

COc1ccc(-c2[nH]c(=O)n(C3OC(CO)C(O)C(O)C3O)c(=O)c2C#N)cc1 (centres undefined)
TGI (SK-MEL-2 melanoma): > 100 µM
TGI (SK-OV-3 ovarian): > 100 µM
TGI (MOLT-4 leukemia): > 100 µM
TGI (MDA-MB-231 breast): > 100 µM
TGI (UO-31 renal): > 100 µM
TGI (COLO 205 colon): > 100 µM
TGI (SK-MEL-28 melanoma): > 100 µM
TGI (SNB-75 CNS): > 100 µM
TGI (NCI-H460 lung): > 100 µM
TGI (NCI-H23 lung): > 100 µM
TGI (CAKI-1 renal): > 100 µM
TGI (HCT-116 colon): > 100 µM
TGI (UACC-62 melanoma): > 100 µM
TGI (PC-3 prostate): > 100 µM
TGI (SW-620 colon): > 100 µM
TGI (HCC-2998 colon): > 100 µM
TGI (U251 CNS): > 100 µM
TGI (SK-MEL-5 melanoma): > 100 µM
TGI (OVCAR-8 ovarian): > 100 µM
TGI (SR leukemia): > 100 µM
TGI (UACC-257 melanoma): > 100 µM
TGI (T-47D breast): > 100 µM
TGI (HL-60(TB) leukemia): > 100 µM
TGI (A549 NSCLC): > 100 µM
TGI (OVCAR-3 ovarian): > 100 µM
TGI (SF-539 CNS): > 100 µM
TGI (OVCAR-4 ovarian): > 100 µM
TGI (RPMI-8226 leukemia): > 100 µM
TGI (NCI-H522 lung): > 100 µM
TGI (SNB-19 CNS): > 100 µM
TGI (MCF7 breast): > 100 µM
TGI (KM12 colon): > 100 µM
TGI (BT-549 breast): > 100 µM
TGI (SF-268 CNS): > 100 µM
TGI (K-562 leukemia): > 100 µM
TGI (NCI-H226 lung): > 100 µM
TGI (SN12C renal): > 100 µM
TGI (OVCAR-5 ovarian): > 100 µM
TGI (ACHN renal): > 100 µM
TGI (SF-295 CNS): > 100 µM
TGI (IGROV1 ovarian): > 100 µM
TGI (HOP-92 NSCLC): > 100 µM
TGI (HT29 colon): > 100 µM
TGI (CCRF-CEM leukemia): > 100 µM
TGI (A498 renal): > 100 µM
TGI (NCI/ADR-RES ovarian): > 100 µM
TGI (786-0 renal): > 100 µM
TGI (RXF 393 renal): > 100 µM
TGI (TK-10 renal): > 100 µM
TGI (HS 578T breast): > 100 µM
TGI (HOP-62 NSCLC): > 100 µM
TGI (HCT-15 colon): > 100 µM
TGI (EKVX NSCLC): > 100 µM
TGI (DU-145 prostate): > 100 µM
TGI (MDA-MB-435): > 100 µM
TGI (M14 melanoma): > 100 µM

CC(=O)Nc1ccc(-c2csc(Nc3ccc(-c4csc(-c5ccccc5)n4)cc3)n2)cc1
GI50 (SK-OV-3 ovarian): 9.08 µM
TGI (SK-OV-3 ovarian): > 50 µM
GI50 (MDA-MB-231 breast): 6.94 µM
TGI (MDA-MB-231 breast): 27.8 µM
GI50 (UO-31 renal): > 50 µM
TGI (UO-31 renal): > 50 µM
GI50 (COLO 205 colon): > 50 µM
TGI (COLO 205 colon): > 50 µM
GI50 (SK-MEL-28 melanoma): 7.14 µM
TGI (SK-MEL-28 melanoma): 42.9 µM
GI50 (NCI-H460 lung): 7.94 µM
TGI (NCI-H460 lung): > 50 µM
GI50 (NCI-H23 lung): 3.73 µM
TGI (NCI-H23 lung): 20.1 µM
GI50 (CAKI-1 renal): 20.9 µM
TGI (CAKI-1 renal): > 50 µM
GI50 (HCT-116 colon): > 50 µM
TGI (HCT-116 colon): > 50 µM
GI50 (UACC-62 melanoma): 5.98 µM
TGI (UACC-62 melanoma): > 50 µM
GI50 (PC-3 prostate): 20.6 µM
TGI (PC-3 prostate): > 50 µM
GI50 (SW-620 colon): > 50 µM
TGI (SW-620 colon): > 50 µM
GI50 (U251 CNS): 7.16 µM
TGI (U251 CNS): 21.3 µM
GI50 (SK-MEL-5 melanoma): 11.1 µM
TGI (SK-MEL-5 melanoma): 41.2 µM
GI50 (OVCAR-8 ovarian): 10.7 µM
TGI (OVCAR-8 ovarian): > 50 µM
GI50 (SR leukemia): 9.64 µM
TGI (SR leukemia): 45.2 µM
GI50 (UACC-257 melanoma): > 50 µM
TGI (UACC-257 melanoma): > 50 µM
GI50 (T-47D breast): 26.5 µM
TGI (T-47D breast): > 50 µM
GI50 (HL-60(TB) leukemia): 37.4 µM
TGI (HL-60(TB) leukemia): > 50 µM
GI50 (A549 NSCLC): 12.6 µM
TGI (A549 NSCLC): > 50 µM
GI50 (OVCAR-3 ovarian): > 50 µM
TGI (OVCAR-3 ovarian): > 50 µM
GI50 (RPMI-8226 leukemia): > 50 µM
TGI (RPMI-8226 leukemia): > 50 µM
GI50 (NCI-H522 lung): 16.3 µM
TGI (NCI-H522 lung): 41.5 µM
GI50 (SNB-19 CNS): 16.5 µM
TGI (SNB-19 CNS): > 50 µM
GI50 (MCF7 breast): 16.3 µM
TGI (MCF7 breast): > 50 µM
GI50 (KM12 colon): 25.5 µM
TGI (KM12 colon): > 50 µM
GI50 (BT-549 breast): 11.4 µM
TGI (BT-549 breast): > 50 µM
GI50 (SF-268 CNS): 19.9 µM
TGI (SF-268 CNS): > 50 µM
GI50 (K-562 leukemia): 5.52 µM
TGI (K-562 leukemia): > 50 µM
GI50 (SN12C renal): 5.64 µM
TGI (SN12C renal): 23.9 µM
GI50 (OVCAR-5 ovarian): 12.6 µM
TGI (OVCAR-5 ovarian): 42.6 µM
GI50 (ACHN renal): 7.53 µM
TGI (ACHN renal): 27.9 µM
GI50 (SF-295 CNS): 36.3 µM
TGI (SF-295 CNS): > 50 µM
GI50 (IGROV1 ovarian): 10.9 µM
TGI (IGROV1 ovarian): 40.2 µM
GI50 (HOP-92 NSCLC): > 50 µM
TGI (HOP-92 NSCLC): > 50 µM
GI50 (CCRF-CEM leukemia): > 50 µM
TGI (CCRF-CEM leukemia): > 50 µM
GI50 (A498 renal): 12.5 µM
TGI (A498 renal): 25.6 µM
GI50 (NCI/ADR-RES ovarian): 11.1 µM
TGI (NCI/ADR-RES ovarian): 37.2 µM
GI50 (786-0 renal): 32.2 µM
TGI (786-0 renal): > 50 µM
GI50 (RXF 393 renal): 13.3 µM
TGI (RXF 393 renal): > 50 µM
GI50 (TK-10 renal): 16.4 µM
TGI (TK-10 renal): > 50 µM
GI50 (HS 578T breast): 40.9 µM
TGI (HS 578T breast): > 50 µM
GI50 (HOP-62 NSCLC): > 50 µM
TGI (HOP-62 NSCLC): > 50 µM
GI50 (LOX IMVI melanoma): 31 µM
TGI (LOX IMVI melanoma): > 50 µM
GI50 (HCT-15 colon): 17.4 µM
TGI (HCT-15 colon): > 50 µM
GI50 (EKVX NSCLC): 12.9 µM
TGI (EKVX NSCLC): > 50 µM
GI50 (DU-145 prostate): 36.1 µM
TGI (DU-145 prostate): > 50 µM
GI50 (MDA-MB-435): 19.1 µM
TGI (MDA-MB-435): > 50 µM
GI50 (M14 melanoma): > 50 µM
TGI (M14 melanoma): > 50 µM
